Target: T1, hyaluronidase (Bos taurus, UniProt Q2YDK3)
T1 sequence (Q2YDK3 36-553): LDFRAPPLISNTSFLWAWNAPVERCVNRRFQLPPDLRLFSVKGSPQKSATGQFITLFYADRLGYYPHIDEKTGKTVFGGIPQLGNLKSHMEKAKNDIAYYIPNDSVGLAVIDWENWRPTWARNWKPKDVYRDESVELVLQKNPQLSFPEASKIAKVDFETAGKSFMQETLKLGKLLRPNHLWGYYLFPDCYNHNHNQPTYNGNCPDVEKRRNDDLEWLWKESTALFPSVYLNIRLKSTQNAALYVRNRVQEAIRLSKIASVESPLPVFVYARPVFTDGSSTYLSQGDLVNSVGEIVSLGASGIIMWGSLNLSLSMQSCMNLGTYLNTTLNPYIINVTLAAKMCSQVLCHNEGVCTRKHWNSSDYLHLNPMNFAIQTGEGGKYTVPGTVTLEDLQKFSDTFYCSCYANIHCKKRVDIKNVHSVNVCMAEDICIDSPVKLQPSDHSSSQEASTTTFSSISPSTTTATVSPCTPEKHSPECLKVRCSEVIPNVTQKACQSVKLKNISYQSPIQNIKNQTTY
Experiment: Hyaluronidase activity inhibition
Assay type: biochemical
Settings: pH 4.0, 37° C.
Method: 5 μL of a hyaluronidase enzyme solution (MP Biomedicals, 4 mg/mL, 100 mM sodium acetate buffer (pH 4.0)) was added to 10 μL of an aqueous solution containing polysaccharides at an optional concentration, which was prepared from the polysaccharide sample containing the neutral polysaccharide fractions and the acidic polysaccharide fractions, the neutral polysaccharide fractions, and the acidic polysaccharide fractions, which were exopolysaccharides produced by the strain IJH-SONE68 and obtained in Example 4. The resultant mixture was incubated at 37° C. for 20 minutes. Thereafter, to the mixture, 10 μL of an enzyme-activating solution (0.5 mg/ml Compound 48/80 (manufactured by MP Biomedicals)), 3.75 mg CaCl2.2H2O, and 100 mM sodium acetate buffer (pH 4.0)) were added, and incubated again at 37° C. for 20 minutes. Subsequently, to the resultant mixture, 25 μL of a sodium hyaluronate solution (Wako Pure Chemical Industries, 0.8 mg/mL, 100 mM sodium acetate buffer (pH 4.0)) was added, and further reacted at 37° C. for 40 minutes. After the reaction, the reaction was terminated by adding 10 μL of 0.4 M NaOH aqueous solution. […] 40 μL of the reaction solution was mixed with 200 μL of p-DMAB solution (described below), the mixture was reacted at 37° C. for 20 minutes, and the absorbance at 585 nm was then measured. […]

SMILES: CC1(C)[C@@H](O[C@H]2O[C@H](C(=O)[O-])[C@@H](O)[C@H](O)[C@H]2O[C@@H]2O[C@H](C(=O)[O-])[C@@H](O)[C@H](O)[C@H]2O)CC[C@]2(C)[C@H]3C(=O)C=C4[C@@H]5C[C@@](C)(C(=O)O)CC[C@]5(C)CC[C@@]4(C)[C@]3(C)CC[C@@H]12.[K+].[K+] [Dipotassium glycyrrhizinate]
- Hyaluronidase activity inhibition IC50: 530 µg/mL

— patent US11447740B2, “Lactic acid bacterium and use thereof” (Sone Farm Co., Ltd., priority 2017, dated 2022)
